Tested on: E. coli strain MG1655 and isogenic loss of function strains
Test: Stressful Lifestyle Adaptive Mutation (SLAM) assay with ciprofloxacin
Assay type: cell-based
Description: […]. Five colonies of each strain, selected from 30 ug/mL kan plates, were grown for 24 hours in LB at 37° C. Dilutions of each culture were made in duplicate and plated on LB plates to determine the number of viable cells.
Also, two 150 μL cultures from each strain were plated on five additional plates for use in ‘survival’ experiments (see below). […] Every twenty-four hours for thirteen days post-plating, colonies were counted and marked and up to 10 representative colonies per strain were stocked in 15% glycerol and stored at −80° C., for use in the reconstruction experiments (see below). […]. After thirteen days, a reconstruction experiment [see FIG. 6; also see Bull, H J, Lombardo, M J, Rosenberg, S M: Stationary-phase mutation in the bacterial chromosome: recombination protein and DNA polymerase IV dependence. Proc Natl Acad Sci USA 2001, 98:8334-8341; and Rosenberg, S M: Evolving responsively: adaptive mutation. Nature Rev Genet 2001, 2:504-515] was performed to determine which of the resistant colonies isolated had evolved resistance via adaptive mutation after exposure to the antibiotic. […]. Only those colonies that grew in a shorter time during the reconstruction experiment than in the original experiment were considered to have acquired an adaptive mutation, i.e. occurred after exposure to the antibiotic. […].
[…]. […]

O=C(O)c1cn(C2CC2)c2cc(N3CCNCC3)c(F)cc2c1=O [ciprofloxacin]
ability to evolve resistance to ciprofloxacin, LexA(Ind−) strain versus wild type (LexA S119A mutant, 35 ng/mL ciprofloxacin): more than two orders of magnitude less able to evolve resistance | decrease in rate of evolving the ability to grow at 60 ng/mL ciprofloxacin, LexA mutant (mutants selected at 35 ng/mL ciprofloxacin): 300 fold
